Laboratory results published in US20160367497A1, “METHODS AND COMPOSITIONS FOR TREATING NEUROPATHIES” (Washington University, priority 2007, published 2016).

Experiments:
AMPK = AMPK and ACC phosphorylation in DRG sensory neurons; type: cell-based, mouse; conditions: for effect on resveratrol-induced AMPK phosphorylation: DRG neurons, resveratrol 10 μM, 2 h
Excerpt: (A) Embryonic DRG neurons from Lkb1 flox/flox mice were infected with lentivirus expressing Cre recombinase (FCIV-Cre) or GFP only (FUGW control). Lentiviral infection was monitored by GFP fluorescence (A). […] Lkb1 flox/flox DRG neurons were infected with FUGW or FCIV-Cre and treated as indicated. AMPK or ACC was immunoprecipitated from neuronal lysates and western blots were probed with the respective phospho-specific antibodies. […] No inhibition of AMPK or ACC phosphorylation was observed by treatment with SIRT1 or CaMKKβ inhibitors. Lysate from AICAR treated DRG neurons was included as a positive control. (E, F) Embryonic DRG neurons were cultured from wild type and SIRT1-deficient littermates derived from SIRT1 heterozygous matings. […] Levels of total AMPK and ACC are shown in the bottom panels of C, D, E and F. Densitometric analysis of changes in levels of phospho AMPK (G) and phospho ACC (H) in SIRT1+/+ and SIRT1−/− DRG neurons in presence and absence of resveratrol is shown. Note: Resv, resveratrol.
(§1) Cell culture and Reagents. Neuro2 cells obtained from ATCC were grown in MEM with 1.5 g/L sodium bicarbonate, 0.1 mM nonessential amino acids, 0.1 mM sodium pyruvate, 2 mM L-glutamine with 10% FCS. For differentiation, cells were switched to serum-starvation medium (containing 0.2% FCS). For neurite outgrowth measurements, experiments were done in quadruplicate and 100 neurites per well were randomly measured using the Metamorph software. Dorsal root ganglia sensory and cortical neurons were established from E13.5 mouse embryos, maintained in neurobasal medium supplemented with B27 (and NGF for DRG neurons) and infected with lentiviruses as described (Araki et al., 2004, Science 305:1010-1013; Hawley et al., 2005, Cell Metab 2:21-23). Resveratrol was a gift from Sirtris Pharmaceuticals (Cambridge Mass.) and AICAR was obtained from Toronto Research (North York, Canada). Splitomycin and Compound C were purchased from Biomol (Plymouth Meeting, Pa.) and Calbiochem (San Diego, Calif.). Sirtinol and nicotinamide were purchased from Sigma (Saint Louis, Mo.)
Plasmids and viruses. The dominant negative (dnAMPK) and constitutively active (caAMPK) plasmids were gifts from Russell Jones (University of Pennsylvania, Philadelphia Pa.), and pCXN-Cre was a gift of Inder Verma (Salk Institute, San Diego, Calif.). All constructs were subcloned into the lentiviral shuttle vector FCIV and verified by nucleotide sequence analysis. Viruses were prepared as previously described (Araki et al., 2004, Science 305:1010-1013). Protein and mRNA analysis. Immunoprecipitations and western blot analysis were performed by standard methods using antibodies directed against total AMPK, phosphorylated AMPK, total ACC or phosphorylated ACC that were obtained from Cell Signaling Technology (Beverley, Mass.). The phospho-AMPK antibody detects endogenous AMPK α1 and α2 when phosphorylated at threonine 172. The LKB1 antibody was purchased from Upstate (Lake Placid, N.Y.). Quantitative RT-PCR analysis was performed using Sybr-Green methodology on a model 7700 instrument (Applied Biosystems) as previously described (Araki et al., 2004, Science 305:1010-1013). Primer sequences were those used in previous studies (Motoshima, et al., 2006, J Physiol 574:63-71).
Resveratrol activation of AMPK in Neuro2a cells along with the crucial role of AMPK in promoting neurite outgrowth in these cells encouraged us to examine this pathway in primary neurons. […]

neuro2A cells = assay: neurite outgrowth in Neuro2a cells; type: cell-based; conditions: for effect on resveratrol-stimulated neurite outgrowth: resveratrol 10 μM, Compound C 10 μM, SIRT1 inhibitors, STO 609 2.5 μM or dnAMPK expression
Experimental: FIG. 11A-D illustrates the resveratrol and AICAR stimulation of neurite outgrowth in Neuro2a cells. Neuro2a cells were switched to serum-starvation medium (medium containing 0.2% FCS) and treated with DMSO (vehicle control), resveratrol (10 μM) or AICAR (1 mM). (A) Serum deprivation of Neuro2a cells results in growth of short neurites that increase in length over 72 h. (B) Resveratrol induced rapid neurite outgrowth resulting in elaborate neurite network formation by 48 h. (C) AICAR stimulated extensive neurite outgrowth similar to that observed with resveratrol. (D).
FIG. 12A-M illustrates the dependency of resveratrol-induced neurite outgrowth and mitochondrial biogenesis on AMPK. Neuro2a cells were infected with lentivirus expressing GFP only (FUGW, control), dominant negative AMPK (dnAMPK) or constitutively active AMPK (caAMPK). Three days later cells were shifted to serum-starvation medium containing DMSO (control) or resveratrol (10 μM). In addition, uninfected Neuro2a cells in serum-starvation medium were treated with resveratrol alone, the AMPK inhibitor Compound C (CC, Biomol International L.P. (Plymouth Meeting, Pa.)) (10 μM) alone or with resveratrol and CC together. Images of the cultures captured in bright field and green fluorescence were overlaid to visualize neurite outgrowth. […] Neurite length in cells treated with caAMPK+resveratrol is also shown (G). […] Values were normalized to the 18S transcript. Data shown is representative of two independent experiments.
as §1
Neuro2a cells are a widely used as in vitro model of neuronal differentiation. These cells cease to proliferate and begin to differentiate, as evidenced by neurite outgrowth, in response to serum starvation, retinoic acid, or growth factors like neurotrophins and GDNF family ligands. […] Neuro2a cells grown under serum starvation conditions (0.2% fetal calf serum) were treated with AICAR (1 mM) or resveratrol (10 μM).
Since resveratrol activated AMPK and altered the differentiation of Neuro2a cells, we next asked whether AMPK activity was required for resveratrol-induced neurite outgrowth. To address this issue, we infected Neuro2a cells with lentivirus expressing either GFP alone (FUGW-control) or dominant negative AMPK (dnAMPK). After 3 days growth to allow robust lentiviral transgene expression, the medium was replaced with serum starvation medium. […] Resveratrol-induced neurite outgrowth was reduced in the presence of the AMPK pharmacological inhibitor Compound C (CC 10 μM) further supporting the importance of AMPK activity for resveratrol-induced neurite outgrowth.

Structure (SMILES) | effect on resveratrol-induced AMPK phosphorylation (AMPK) | effect on resveratrol-stimulated neurite outgrowth (neuro2A cells) | phosphorylation of AMPK and ACC (AMPK; E13.5 DRG sensory neurons, 10 μM) | neurite outgrowth compared to serum starvation alone (neuro2A cells; 0.2% FCS, resveratrol 10 μM or AICAR 1 mM)
NC(=O)c1cccnc1 [Nam, nicotinamide] | none of the SIRT inhibitors | had no effect | – | –
O=C(O)c1ccc2c3c1cccc3c(=O)n1c3ccccc3nc21 [STO 609] | had no effect | had no effect | – | –
CC(NC(=O)c1ccccc1/N=C/c1c(O)ccc2ccccc12)c1ccccc1 (stereo not shown) [Sirtinol] | none of the SIRT inhibitors | had no effect | – | –
Oc1ccc(C=Cc2cc(O)cc(O)c2)cc1 [resveratrol] | – | – | stimulated phosphorylation of AMPK and ACC | increased neurite outgrowth
O=C1CCc2c(ccc3ccccc23)O1 [splitomycin] | none of the SIRT inhibitors | had no effect | – | –
